# Reference: ChEMBL document CHEMBL1140628, “Assessing potency of c-Jun N-terminal kinase 3 (JNK3) inhibitors using 2D molecular descriptors and binary QSAR methodology” (Bioorg Med Chem, 2007)
# Target: Mitogen-activated protein kinase 10 (Homo sapiens, UniProt P53779)
# Test: Inhibition of JNK3
# Chain of Mitogen-activated protein kinase 10 (P53779 whole entry): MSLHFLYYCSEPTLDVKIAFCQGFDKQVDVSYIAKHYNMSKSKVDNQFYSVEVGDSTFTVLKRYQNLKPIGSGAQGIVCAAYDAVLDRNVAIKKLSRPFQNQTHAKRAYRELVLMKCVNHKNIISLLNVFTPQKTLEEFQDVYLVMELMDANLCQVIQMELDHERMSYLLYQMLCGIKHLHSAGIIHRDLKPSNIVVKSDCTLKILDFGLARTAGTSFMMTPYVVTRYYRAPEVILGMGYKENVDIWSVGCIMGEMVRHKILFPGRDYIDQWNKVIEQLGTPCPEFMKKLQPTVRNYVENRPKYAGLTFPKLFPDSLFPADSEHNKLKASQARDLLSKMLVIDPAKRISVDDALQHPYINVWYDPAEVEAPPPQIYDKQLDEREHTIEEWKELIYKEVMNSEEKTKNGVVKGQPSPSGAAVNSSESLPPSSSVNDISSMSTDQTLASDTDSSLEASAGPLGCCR
row,IC50 [nM],SMILES
1,400,NC1=CC=C2SN=C3c4ccccc4C(=O)C1C23 (stereo not given)
2,190,Oc1c2ccccc2c2c3c(cccc13)N=N2 [SP-600125]
3,3.1,COc1ccc(CCNc2nccc(/C(C#N)=C3\Nc4ccccc4S3)n2)cc1
4,41,N#C/C(=C1/Nc2ccccc2S1)c1ccnc(NCCc2ccc(S(N)(=O)=O)cc2)n1
5,1.6,CCCn1c(C2CCN(C)CC2)nc(-c2ccc(Cl)c(Cl)c2)c1-c1ccnc(NC2CC2)n1
